Laboratory results: the supplement of paper PMC11061612

Tests used:
Test in all cases: Bliss excess, mean over the matrix (fraction); higher = more synergy
[1] = system: DiFi (Colorectal Carcinoma)
Summary of the method: (§1)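 Cell lines in DMEM/F12 or RPMI with 10% FBS were plated in 1536-well plates, held 24 hours at 37°C, 5% CO2, then given two-drug dose matrices for 72 hours (DMSO typically 0.2%). Viability was read by CellTiter-Glo 2.0 luminescence and scaled as inhibition from 0 (vehicle wells) to 1 (blank wells). Combination Emax is the second-highest inhibition in the matrix; Bliss excess is observed combination effect minus expected EA + EB − EA·EB, EA and EB being single-agent effects.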

ES8 (Ewing's Sarcoma) = system: ES8 (Ewing's Sarcoma)
Summary of the method: as §1

[2] = system: EVSA-T (Breast Carcinoma)
Summary of the method: as §1

[3] = system: GR-ST (B-Lymphoblastic Leukemia)
Summary of the method: as §1

[4] = system: HL-60 (Acute Myeloid Leukemia)
Summary of the method: as §1

[5] = system: K-562 (Chronic Myelogenous Leukemia)
Summary of the method: as §1

[6] = system: KCL-22 (Chronic Myelogenous Leukemia)
Summary of the method: as §1

[7] = system: KYSE-180 (Esophageal Squamous Cell Carcinoma)
Summary of the method: as §1

LN-18 (Glioblastoma) = system: LN-18 (Glioblastoma)
Summary of the method: as §1

[8] = system: MFM-223 (Breast Carcinoma)
Summary of the method: as §1

[9] = system: MKN28 (Gastric Carcinoma)
Summary of the method: as §1

[10] = system: MOLT-16 (T-Lymphoblastic Leukemia)
Summary of the method: as §1

[11] = system: NCI-H1792 (Lung Adenocarcinoma)
Summary of the method: as §1

[12] = system: NCI-H847 (Small Cell Lung Carcinoma)
Summary of the method: as §1

[13] = system: PANC-08-13 (Pancreatic Carcinoma)
Summary of the method: as §1

[14] = system: SR (Other Blood Carcinomas)
Summary of the method: as §1

TC-71 (Ewing's Sarcoma) = system: TC-71 (Ewing's Sarcoma)
Summary of the method: as §1

[15] = system: TE-6 (Esophageal Squamous Cell Carcinoma)
Summary of the method: as §1

WM-115 (Melanoma) = system: WM-115 (Melanoma)
Summary of the method: as §1

[16] = system: P12-ICHIKAWA (T-Lymphoblastic Leukemia)
Summary of the method: as §1

Row | SMILES | Bliss excess [1] | Bliss excess (ES8 (Ewing's Sarcoma)) | Bliss excess [2] | Bliss excess [3] | Bliss excess [4] | Bliss excess [5] | Bliss excess [6] | Bliss excess [7] | Bliss excess (LN-18 (Glioblastoma)) | Bliss excess [8] | Bliss excess [9] | Bliss excess [10] | Bliss excess [11] | Bliss excess [12] | Bliss excess [13] | Bliss excess [14] | Bliss excess (TC-71 (Ewing's Sarcoma)) | Bliss excess [15] | Bliss excess (WM-115 (Melanoma)) | Bliss excess [16]
1 | CN(C)CCCOc1ccc(-c2ccc3ncc4c(c3c2)n(C2CCOCC2)c(=O)n4C)cn1 [AZD0156] + C=CCn1c(=O)c2cnc(Nc3ccc(N4CCN(C)CC4)cc3)nc2n1-c1cccc(C(C)(C)O)n1 [AZD1775] (first compound max 1 µM, partner max 1 µM) | -0.0013 | -0.0464 | -0.0618 | -0.0229 | -0.0177 | -0.0269 | -0.0326 | -0.0451 | -0.0307 | -0.0282 | -0.0875 | -0.0108 | -0.0041 | -0.0114 | -0.0586 | -0.0509 | 0.0685 | -0.045 | -0.0383 | 
2 | CN(C)CCCOc1ccc(-c2ccc3ncc4c(c3c2)n(C2CCOCC2)c(=O)n4C)cn1 [AZD0156] + CCN(CCO)CCCOc1ccc2c(Nc3cc(CC(=O)Nc4cccc(F)c4)[nH]n3)ncnc2c1 [AZD2811] (first compound max 1 µM, 7x7, partner max 1 µM) | -0.0363 | -0.0153 | 0.0104 | 0.0033 | -0.0762 | -0.0011 | 0.0703 | -0.0153 | 0.0009 | 0.0113 | -0.0295 | -0.0087 | -0.0032 | -0.0122 | -0.0461 | -0.0666 | 0.0495 | 0.0127 | -0.0368 | 
3 | Cc1nc(Nc2ncc(C(=O)Nc3c(C)cccc3Cl)s2)cc(N2CCN(CCO)CC2)n1 [Dasatinib] + CC(=O)Nc1cccc(-n2c(=O)n(C3CC3)c(=O)c3c(Nc4ccc(I)cc4F)n(C)c(=O)c(C)c32)c1 [Trametinib] (first compound max 2 µM, 7x7, partner max 1 µM) | -0.0465 | 0.0243 | -0.0361 | 0.0189 | -0.159 | -0.0956 | -0.0501 | -0.0424 | -0.0433 | -0.0546 | 0.0027 | -0.0184 | 0.0422 |  | 0.143 | -0.0069 | -0.0333 | -0.0255 | 0.118 | 0.0326
4 | COc1cc2ncnc(Nc3ccc(F)c(Cl)c3)c2cc1OCCCN1CCOCC1 [Gefitinib] + CC(C)n1c(=O)n(C)c2cnc3cc(F)c(-c4ccc(OCCCN5CCCCC5)nc4)cc3c21 [AZD1390] (first compound max 10 µM, 7x7, partner max 0.3 µM) | -0.0882 | -0.0364 | -0.0306 | -0.0303 | -0.0852 | -0.0304 | -0.0573 | -0.0621 | -0.033 | -0.0681 | -0.0498 | -0.0401 | -0.0422 |  | -0.0511 | -0.0109 | -0.0927 | -0.117 | -0.0856 | -0.0152
5 | CS(=O)(=O)CCNCc1ccc(-c2ccc3ncnc(Nc4ccc(OCc5cccc(F)c5)c(Cl)c4)c3c2)o1 [Lapatinib] + C[C@@H](Oc1cc(-c2cnn(C3CCNCC3)c2)cnc1N)c1c(Cl)ccc(F)c1Cl [Crizotinib] (first compound max 10 µM, 7x7, partner max 10 µM) | 0.0187 | -0.0424 | -0.0359 | -0.025 | 0.019 | -0.0453 | 0.0178 | 0.0476 | -0.0342 | 0.0148 | -0.0477 | 0.0062 | -0.0342 |  | -0.0246 | 0.019 | -0.0079 | -0.0111 | -0.0237 | -0.0077
6 | CC(=O)c1c(C)c2cnc(Nc3ccc(N4CCNCC4)cn3)nc2n(C2CCCC2)c1=O [Palbociclib] + CC1(C)CCC(CN2CCN(c3ccc(C(=O)NS(=O)(=O)c4ccc(NCC5CCOCC5)c([N+](=O)[O-])c4)c(Oc4cnc5[nH]ccc5c4)c3)CC2)=C(c2ccc(Cl)cc2)C1 [Venetoclax] (first compound max 10 µM, 7x7, partner max 1 µM) | 0.0239 | 0.0365 | 0.0048 | 0.0074 | -0.0215 | -0.0313 | 0.0057 | -0.012 | 0.0187 | 0.0031 | -0.0461 | 0.0452 | -0.0103 |  | -0.0361 | -0.0245 | -0.0129 | -0.0255 | -0.0708 | -0.0157
7 | CC(=O)c1c(C)c2cnc(Nc3ccc(N4CCNCC4)cn3)nc2n(C2CCCC2)c1=O [Palbociclib] + Cc1c2c(nn1C)CSCc1cc(n(C)n1)CSc1cc(c3ccccc3c1)OCCCc1c(C(=O)O)n(C)c3c-2c(Cl)ccc13 [AZD5991] (first compound max 10 µM, 7x7, partner max 1 µM) | -0.0139 | 0.0838 | -0.117 | 0.0096 | -0.0214 | -0.0141 | 0.0403 | -0.0602 | -0.0153 | -0.0784 | -0.0385 | -0.0427 | -0.0186 |  | -0.0427 | 0.0286 | -0.0182 | -0.0272 | -0.0282 | -0.0467
8 | CC(=O)c1c(C)c2cnc(Nc3ccc(N4CCNCC4)cn3)nc2n(C2CCCC2)c1=O [Palbociclib] + Cn1cnc2c(F)c(Nc3ccc(Br)cc3Cl)c(C(=O)NOCCO)cc21 [Selumetinib] (first compound max 10 µM, 7x7, partner max 10 µM) | 0.0274 | 0.041 | -0.0035 | 0.0333 | 0.0109 | 0.0221 | -0.0021 | -0.0135 | 0.0293 | 0.0341 | 0.0275 | -0.0133 | 0.119 |  | -0.0053 | 0.0352 | -0.012 | 0.0172 | -0.0126 | 0.138
9 | CCc1c2c(nc3ccc(O)cc13)-c1cc3c(c(=O)n1C2)COC(=O)[C@]3(O)CC [SN-38] + O=C(c1cc(Cc2n[nH]c(=O)c3ccccc23)ccc1F)N1CCN(C(=O)C2CC2)CC1 [Olaparib] (first compound max 0.3 µM, 7x7, partner max 10 µM) | 0.0423 | 0.0636 | 0.0738 | -0.05 |  | 0.0222 | 0.0525 | 0.0458 |  | 0.0054 | 0.0385 |  | 0.0361 | 0.0304 | -0.0202 | 0.0614 |  |  | 0.0847 | 
10 | C[C@@H](c1ccc2nccn2c1)n1nnc2ncc(-c3cnn(C)c3)nc21 [Savolitinib] + CC1(C)CCC(CN2CCN(c3ccc(C(=O)NS(=O)(=O)c4ccc(NCC5CCOCC5)c([N+](=O)[O-])c4)c(Oc4cnc5[nH]ccc5c4)c3)CC2)=C(c2ccc(Cl)cc2)C1 [Venetoclax] (first compound max 1 µM, 7x7, partner max 1 µM) | -0.0468 | 0.0191 | -0.0269 | -0.0073 | -0.0202 | -0.0187 | -0.0352 | -0.0326 | -0.0265 | -0.0414 | -0.0464 | -0.0788 | -0.0597 |  | -0.0436 | 0.0747 | -0.0517 | -0.0559 | -0.0346 | -0.0414
11 | C[C@@H](c1ccc2nccn2c1)n1nnc2ncc(-c3cnn(C)c3)nc21 [Savolitinib] + Cc1c2c(nn1C)CSCc1cc(n(C)n1)CSc1cc(c3ccccc3c1)OCCCc1c(C(=O)O)n(C)c3c-2c(Cl)ccc13 [AZD5991] (first compound max 1 µM, 7x7, partner max 1 µM) | -0.0321 | 0.0495 | -0.0233 | -0.037 | -0.0266 | 0.0145 | -0.0134 | -0.0117 | 0.005 | -0.0228 | -0.045 | -0.0289 | -0.0279 |  | -0.0452 | 0.0023 | -0.021 | -0.0541 | -0.037 | 0.02
12 | Cn1cnc2c(F)c(Nc3ccc(Br)cc3Cl)c(C(=O)NOCCO)cc21 [Selumetinib] + C=CCn1c(=O)c2cnc(Nc3ccc(N4CCN(C)CC4)cc3)nc2n1-c1cccc(C(C)(C)O)n1 [AZD1775] (first compound max 10 µM, partner max 1 µM) | 0.0233 | -0.185 | -0.015 | -0.0368 | -0.0732 | 0.0752 | 0.0242 | -0.122 | -0.0103 | -0.0831 | -0.0192 | 0.0252 | -0.0647 |  | -0.0849 | -0.0132 | -0.039 | 0.0165 | -0.0731 | 0.0595
13 | Cn1cnc2c(F)c(Nc3ccc(Br)cc3Cl)c(C(=O)NOCCO)cc21 [Selumetinib] + CC(C)n1c(=O)n(C)c2cnc3cc(F)c(-c4ccc(OCCCN5CCCCC5)nc4)cc3c21 [AZD1390] (first compound max 10 µM, 7x7, partner max 0.3 µM) | 0.0004 | -0.0529 | -0.0185 | -0.0084 | -0.073 | -0.0345 | 0.0847 | -0.042 | -0.0148 | -0.033 | -0.0463 | 0.0182 | -0.0075 |  | -0.0365 | -0.0171 | -0.0211 | -0.0528 | -0.0442 | 0.0544
14 | Cn1cnc2c(F)c(Nc3ccc(Br)cc3Cl)c(C(=O)NOCCO)cc21 [Selumetinib] + CCN(CCO)CCCOc1ccc2c(Nc3cc(CC(=O)Nc4cccc(F)c4)[nH]n3)ncnc2c1 [AZD2811] (first compound max 10 µM, 7x7, partner max 1 µM) | 0.0371 | -0.0089 | 0.0097 | 0.0702 | 0.0017 | 0.0352 | 0.0941 | -0.0408 | -0.0192 | -0.0363 | -0.0317 | -0.0271 | 0.0143 |  | -0.0278 | 0.0128 | 0.0298 | -0.0282 | -0.042 | 0.0216
15 | Cn1cnc2c(F)c(Nc3ccc(Br)cc3Cl)c(C(=O)NOCCO)cc21 [Selumetinib] + C[C@@H]1COCCN1C2=NC(=NC(=C2)C3(CC3)[S@](=N)(=O)C)C4=C5C=CNC5=NC=C4 [AZD6738] (first compound max 10 µM, 7x7, partner max 10 µM) | 0.0092 | -0.069 | -0.0377 | -0.0301 | -0.039 | -0.0116 | -0.0129 | -0.0249 | -0.0318 | -0.0412 | -0.0316 | 0.0063 | -0.0049 |  | -0.0351 | -0.0169 | -0.022 | 0.0221 | 0.0116 | 0.0286
